Assay results published in patent publication US10125098B2, “Therapeutic compounds and methods of use thereof” (GENENTECH, INC., priority 2014, dated 2018).
pIC50: −log10 of the molar value. Counter-ions that a name gives are not always drawn. Like-named read-outs stand apart in the source and are kept apart here.

Key:
NaV1.5 = biological target: T1, NaV1.5 (Homo sapiens, UniProt Q14524); assay: Patch voltage clamp electrophysiology assay (EP), NaV1.5; type: cell-based
T1 construct: permanently transfected with an expression vector containing the full-length cDNA coding for the desired human sodium channel α-subunit; expressed in transfected cells; host or cells: HEK-293
T1 sequence (Q14524 whole entry): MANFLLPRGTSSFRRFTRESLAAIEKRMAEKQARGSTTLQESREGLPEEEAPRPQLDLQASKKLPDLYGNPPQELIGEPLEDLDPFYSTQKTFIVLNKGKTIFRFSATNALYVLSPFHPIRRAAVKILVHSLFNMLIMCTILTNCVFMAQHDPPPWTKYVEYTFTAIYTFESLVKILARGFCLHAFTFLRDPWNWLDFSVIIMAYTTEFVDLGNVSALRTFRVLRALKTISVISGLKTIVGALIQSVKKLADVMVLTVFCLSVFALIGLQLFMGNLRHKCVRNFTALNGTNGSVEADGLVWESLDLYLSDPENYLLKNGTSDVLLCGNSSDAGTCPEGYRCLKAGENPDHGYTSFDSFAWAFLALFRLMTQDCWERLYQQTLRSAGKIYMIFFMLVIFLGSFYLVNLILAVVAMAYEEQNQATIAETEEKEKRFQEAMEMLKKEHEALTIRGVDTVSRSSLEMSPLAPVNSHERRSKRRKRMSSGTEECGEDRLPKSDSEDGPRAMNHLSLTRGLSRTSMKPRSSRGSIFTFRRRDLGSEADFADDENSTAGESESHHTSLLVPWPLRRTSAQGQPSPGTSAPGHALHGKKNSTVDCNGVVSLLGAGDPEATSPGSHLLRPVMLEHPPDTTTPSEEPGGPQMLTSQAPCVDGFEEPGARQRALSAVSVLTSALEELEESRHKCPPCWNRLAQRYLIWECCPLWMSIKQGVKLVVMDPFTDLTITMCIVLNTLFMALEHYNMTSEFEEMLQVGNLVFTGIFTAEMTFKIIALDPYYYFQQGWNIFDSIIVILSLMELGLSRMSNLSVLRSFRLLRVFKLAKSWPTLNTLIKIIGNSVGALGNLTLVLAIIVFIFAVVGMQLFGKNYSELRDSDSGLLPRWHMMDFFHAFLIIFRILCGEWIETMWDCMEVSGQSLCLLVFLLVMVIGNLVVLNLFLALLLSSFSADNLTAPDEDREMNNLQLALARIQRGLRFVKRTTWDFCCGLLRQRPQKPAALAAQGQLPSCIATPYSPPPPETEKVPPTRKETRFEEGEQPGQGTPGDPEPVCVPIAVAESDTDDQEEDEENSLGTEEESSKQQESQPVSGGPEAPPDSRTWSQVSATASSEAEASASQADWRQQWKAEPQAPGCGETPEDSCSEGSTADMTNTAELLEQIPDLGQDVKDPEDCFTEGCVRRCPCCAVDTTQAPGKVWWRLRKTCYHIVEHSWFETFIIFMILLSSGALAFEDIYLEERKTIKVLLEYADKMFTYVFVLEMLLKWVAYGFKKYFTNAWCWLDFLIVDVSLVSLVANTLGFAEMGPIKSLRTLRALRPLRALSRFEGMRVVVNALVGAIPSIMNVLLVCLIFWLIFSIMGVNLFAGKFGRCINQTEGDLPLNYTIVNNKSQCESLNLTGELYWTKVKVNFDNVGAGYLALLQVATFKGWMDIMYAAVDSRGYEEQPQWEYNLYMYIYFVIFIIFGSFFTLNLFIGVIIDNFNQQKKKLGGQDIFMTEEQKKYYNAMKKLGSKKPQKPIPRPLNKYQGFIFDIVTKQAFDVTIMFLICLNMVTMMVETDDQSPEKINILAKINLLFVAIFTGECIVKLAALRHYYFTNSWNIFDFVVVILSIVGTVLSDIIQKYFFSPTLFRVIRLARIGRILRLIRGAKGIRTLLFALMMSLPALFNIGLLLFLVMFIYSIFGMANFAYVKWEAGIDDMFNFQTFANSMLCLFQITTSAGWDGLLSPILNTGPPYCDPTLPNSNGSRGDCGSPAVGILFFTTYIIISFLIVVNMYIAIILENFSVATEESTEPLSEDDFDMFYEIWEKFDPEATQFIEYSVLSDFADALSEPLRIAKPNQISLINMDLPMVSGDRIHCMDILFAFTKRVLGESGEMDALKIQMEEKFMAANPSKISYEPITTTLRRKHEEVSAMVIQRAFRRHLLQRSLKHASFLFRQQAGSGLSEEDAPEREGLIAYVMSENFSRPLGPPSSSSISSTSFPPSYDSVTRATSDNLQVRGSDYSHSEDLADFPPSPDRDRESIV
Procedure, shortened: (§1)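 Percent block is the drop in sodium current after compound wash-on, measured by a test pulse following 20 ms at −150 mV from a −60 mV inactivating holding potential.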

human NaV1.7 = biological target: T2, human NaV1.7 (Homo sapiens, UniProt Q15858); assay: Patch voltage clamp electrophysiology assay (EP), NaV1.7; type: cell-based; conditions: HEK-293 cells stably expressing NaV1.7 with β1 subunit; whole-cell patch clamp, membrane potential −60 mV (inactivated state)
T2 construct: permanently transfected with an expression vector containing the full-length cDNA coding for the desired human sodium channel α-subunit; expressed in transfected cells; host or cells: HEK-293
T2 sequence (Q15858 1-1977 isoform Q15858-3): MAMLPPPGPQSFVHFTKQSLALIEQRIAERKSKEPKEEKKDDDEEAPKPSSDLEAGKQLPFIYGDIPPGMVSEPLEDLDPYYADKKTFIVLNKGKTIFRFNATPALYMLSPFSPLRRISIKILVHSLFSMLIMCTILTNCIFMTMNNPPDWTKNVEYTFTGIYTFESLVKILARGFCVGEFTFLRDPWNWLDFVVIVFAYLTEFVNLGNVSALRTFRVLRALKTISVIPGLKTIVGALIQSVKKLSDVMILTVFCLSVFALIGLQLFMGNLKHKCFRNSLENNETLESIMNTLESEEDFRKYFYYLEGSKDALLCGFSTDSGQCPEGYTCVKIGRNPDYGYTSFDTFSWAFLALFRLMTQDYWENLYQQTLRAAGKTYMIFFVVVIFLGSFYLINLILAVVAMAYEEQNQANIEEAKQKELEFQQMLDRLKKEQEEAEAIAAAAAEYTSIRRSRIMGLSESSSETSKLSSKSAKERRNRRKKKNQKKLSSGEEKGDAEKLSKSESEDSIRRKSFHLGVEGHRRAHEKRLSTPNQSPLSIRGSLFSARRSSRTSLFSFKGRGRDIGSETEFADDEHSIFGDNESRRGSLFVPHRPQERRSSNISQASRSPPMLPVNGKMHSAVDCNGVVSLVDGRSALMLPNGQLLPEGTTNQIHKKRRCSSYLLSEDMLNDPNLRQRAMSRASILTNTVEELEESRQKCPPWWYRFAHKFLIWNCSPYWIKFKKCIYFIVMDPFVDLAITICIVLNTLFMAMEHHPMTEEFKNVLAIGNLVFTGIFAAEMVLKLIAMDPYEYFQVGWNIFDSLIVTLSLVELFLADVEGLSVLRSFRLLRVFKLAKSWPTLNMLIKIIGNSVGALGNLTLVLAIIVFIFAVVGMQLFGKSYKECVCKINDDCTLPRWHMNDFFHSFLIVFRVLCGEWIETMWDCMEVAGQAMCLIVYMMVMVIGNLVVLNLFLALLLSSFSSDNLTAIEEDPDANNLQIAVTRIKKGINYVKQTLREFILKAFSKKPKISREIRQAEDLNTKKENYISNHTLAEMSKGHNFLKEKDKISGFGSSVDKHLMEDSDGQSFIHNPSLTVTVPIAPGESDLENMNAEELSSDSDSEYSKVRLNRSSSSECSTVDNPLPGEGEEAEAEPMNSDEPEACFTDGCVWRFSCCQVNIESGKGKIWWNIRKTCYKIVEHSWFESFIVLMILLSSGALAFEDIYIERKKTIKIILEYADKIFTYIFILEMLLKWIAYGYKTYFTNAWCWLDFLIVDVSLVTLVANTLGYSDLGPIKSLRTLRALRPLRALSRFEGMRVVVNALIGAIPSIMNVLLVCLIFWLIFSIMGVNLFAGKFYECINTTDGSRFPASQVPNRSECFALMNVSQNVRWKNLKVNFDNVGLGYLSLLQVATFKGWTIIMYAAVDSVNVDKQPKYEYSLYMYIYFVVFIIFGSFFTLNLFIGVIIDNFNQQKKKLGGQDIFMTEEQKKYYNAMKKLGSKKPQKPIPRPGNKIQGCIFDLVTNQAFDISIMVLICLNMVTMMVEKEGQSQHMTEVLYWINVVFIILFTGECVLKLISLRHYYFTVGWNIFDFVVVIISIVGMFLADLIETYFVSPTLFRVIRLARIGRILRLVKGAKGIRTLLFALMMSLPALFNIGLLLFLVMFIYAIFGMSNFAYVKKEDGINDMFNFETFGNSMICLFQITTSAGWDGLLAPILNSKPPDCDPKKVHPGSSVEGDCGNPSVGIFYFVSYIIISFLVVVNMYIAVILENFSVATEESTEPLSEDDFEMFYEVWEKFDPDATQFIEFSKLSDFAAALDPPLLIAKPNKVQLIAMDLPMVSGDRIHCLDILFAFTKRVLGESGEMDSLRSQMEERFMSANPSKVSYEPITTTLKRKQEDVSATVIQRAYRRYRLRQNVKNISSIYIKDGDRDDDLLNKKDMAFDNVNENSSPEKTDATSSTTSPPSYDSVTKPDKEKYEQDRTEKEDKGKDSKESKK
T2 sequence (Q07699 19-218 partner): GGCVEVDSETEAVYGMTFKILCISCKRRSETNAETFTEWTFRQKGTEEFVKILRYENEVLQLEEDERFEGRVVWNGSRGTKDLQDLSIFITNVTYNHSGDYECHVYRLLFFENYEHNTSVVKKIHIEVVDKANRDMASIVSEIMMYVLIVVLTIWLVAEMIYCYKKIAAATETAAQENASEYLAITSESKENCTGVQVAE
Procedure, shortened: as §1

hNav1.7 = biological target: T3, hNav1.7 (Homo sapiens, UniProt Q15858); assay: Tritiated compound binding (LBA) to membranes from cells expressing hNav1.7 and the β1 subunit, competitive binding; conditions: competitive binding vs 100 pM [3H]compound, 18 h, room temperature, membranes with hNav1.7 and β1 subunit
T3 construct: expressed in transfected cells
T3 sequence (Q15858 1-1977 isoform Q15858-3): as the sequence (Q15858 1-1977 isoform Q15858-3) above
T3 sequence (Q07699 19-218 partner): as the sequence (Q07699 19-218 partner) above
Procedure, shortened: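 Competitive displacement of 100 pM [3H]compound (tritiated methyl analogue of formula (I)) from hNav1.7/β1 membranes, 18 h at room temperature in NaCl/Tris pH 7.4 buffer containing 0.01% BSA. 1 μM unlabeled compound set non-specific binding. Bound label quantified by scintillation after filtration; 4-parameter fit gave IC50.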

[1] = HEK-293 cells stably expressing NaV1.5 with β1 subunit, whole-cell patch clamp, membrane potential −60 mV (inactivated state), read-out: Nav1.5
[2] = human, HEK-293 cells stably expressing human NaV1.5 with β1 subunit, pH 7.4, HEK-293 cells stably expressing NaV1.5 with β1 subunit, whole-cell patch clamp, membrane potential −60 mV (inactivated state)

Row | pIC50 (human NaV1.7) | pIC50 (hNav1.7) | Compound | pIC50 (NaV1.5; [1]) | pIC50 (NaV1.5; [2]) | pIC50 (NaV1.5)
1 | 6.01 | 6.77 | O=C(O)[C@@H]1[C@H](F)CCN1C(=O)c1cc(C2CC2)c(OCC23CC4CC(CC(C4)C2)C3)cc1F [Example 63, (2R, 3R)-1-(4-((adamantan-1-yl)methoxy)-5-cyclopropyl-2-fluorobenzoyl)-3-fluoropyrrolidine-2-carboxylic acid] | 4.74 | – | –
2 | 6.15 | 6.70 | CC1[C@@H](C(=O)O)N(C(=O)c2cc(C3CC3)c(OCC3(F)CCN([C@@H](C)c4cc(Cl)cc(Cl)c4)CC3)cc2F)C[C@@H]1F (stereo partly drawn) [Example 209, (2S,4R)-1-(5-cyclopropyl-4-((1-((S)-1-(3,5-dichlorophenyl)ethyl)-4-fluoropiperidin-4-yl)methoxy)-2-fluorobenzoyl)-4-fluoro-3-methylpyrrolidine-2-carboxylic acid] | 4.70 | – | –
3 | 5.52 | 6.12 | C[C@@H]1SCN(C(=O)c2cc(C3CC3)c(OCC34CC5CC(CC(C5)C3)C4)cc2F)[C@H]1C(=O)O [Example 142b, (4S,5S)-3-[4-(1-adamantylmethoxy)-5-cyclopropyl-2-fluoro-benzoyl]-5-methyl-thiazolidine-4-carboxylic acid] | 4.82 | – | –
4 | 5.92 | 6.77 | O=C(O)[C@@H]1CS(=O)(=O)CN1C(=O)c1cc(C2CC2)c(OCC23CC4CC(CC(C4)C2)C3)cc1F [Example 143, (4R)-3-[4-(1-adamantylmethoxy)-5-cyclopropyl-2-fluoro-benzoyl]-1,1-dioxo-1,3-thiazolidine-4-carboxylic acid] | 4.68 | – | –
5 | 6.22 | 7.00 | O=C(O)[C@@H]1C[C@@H](F)CN1C(=O)c1cc(C2CC2)c(OCCC2CCN(Cc3cc(Cl)cc(Cl)c3)CC2)cc1F [Example 94, (2S, 4R)-1-(5-cyclopropyl-4-(2-(1-(3,5-dichlorobenzyl)piperidin-4-yl)ethoxy)-2-fluorobenzoyl)-4-fluoropyrrolidine-2-carboxylic acid] | – | ≤ 4.52 | –
6 | 5.43 | 6.24 | C[C@@]1(COc2cc(F)c(C(=O)N3CCC[C@H]3C(=O)O)cc2C2CC2)CCN(Cc2cc(F)cc(Cl)c2)C1 (single isomer, unassigned) [Example 137a] | 4.82 | – | –
7 | 6.60 | 7.55 | COC[C@@H](c1cc(Cl)cc(Cl)c1)N1CCC(COc2cc(F)c(C(=O)N3C[C@H](F)C[C@H]3C(=O)O)cc2C2CC2)CC1 [Example 131, (2S,4R)-1-(5-cyclopropyl-4-((1-((R)-1-(3,5-dichlorophenyl)-2-methoxyethyl)piperidin-4-yl)methoxy)-2-fluorobenzoyl)-4-fluoropyrrolidine-2-carboxylic acid] | 4.74 | – | –
8 | 5.89 | 6.22 | O=C(O)[C@@H]1[C@@H](O)CCN1C(=O)c1cc(C2CC2)c(OCC23CC4CC(CC(C4)C2)C3)cc1F [Example 75, (2S,3S)-1-(4-(adamantan-1-ylmethoxy)-5-cyclopropyl-2-fluorobenzoyl)-3-hydroxypyrrolidine-2-carboxylic acid] | 4.60 | – | –
9 | 6.47 | 7.52 | O=C(O)[C@H]1CSCN1C(=O)c1cc(C2CC2)c(OCC23CC4CC(CC(C4)C2)C3)cc1F [Example 50, (4S)-3-[4-(1-adamantylmethoxy)-5-cyclopropyl-2-fluoro-benzoyl]thiazolidine-4-carboxylic acid] | 4.71 | – | –
10 | 5.85 | 7.74 | CC1(COc2cc(F)c(C(=O)N3CCC[C@H]3C(=O)O)cc2C2CC2)CN(C(c2ccccc2)c2cc(Cl)cc(Cl)c2)C1 (stereo partly drawn) [Example 196, (2S)-1-(5-cyclopropyl-4-((1-((3,5-dichlorophenyl)(phenyl)methyl)-3-methylazetidin-3-yl)methoxy)-2-fluorobenzoyl)pyrrolidine-2-carboxylic acid trifluoroacetate] | 4.89 | – | –
11 | 6.11 | 7.04 | C[C@@H](c1cc(Cl)cc(Cl)c1)N1CCC(COc2cc(F)c(C(=O)N3C[C@H](Cl)C[C@H]3C(=O)O)cc2C2CC2)CC1 [Example 169, (2S,4R)-4-chloro-1-(5-cyclopropyl-4-((1-((S)-1-(3,5-dichlorophenyl)ethyl)piperidin-4-yl)methoxy)-2-fluorobenzoyl)pyrrolidine-2-carboxylic acid] | 4.89 | – | –
12 | 5.47 | 5.28 | O=C(O)[C@@H]1CC(O)(C(F)(F)F)CN1C(=O)c1cc(C2CC2)c(OCC23CC4CC(CC(C4)C2)C3)cc1F (stereo partly drawn) [Example 213, (2S)-1-(4-((adamantan-1-yl)methoxy)-5-cyclopropyl-2-fluorobenzoyl)-4-hydroxy-4-(trifluoromethyl)pyrrolidine-2-carboxylic acid] | 5.12 | – | –
13 | 6.10 | 6.60 | CC1(COc2cc(F)c(C(=O)N3CCC[C@H]3C(=O)O)cc2C2CC2)CCC2(CC1)CC2(F)F (stereo partly drawn) [Example 55, (5-cyclopropyl-4-((1,1-difluoro-6-methylspiro[2.5]octan-6-yl)methoxy)-2-fluorobenzoyl)-L-proline] | 4.54 | – | –
14 | 6.47 | 7.48 | O=C(O)[C@@H]1C[C@@H](F)CN1C(=O)c1cc(C2CC2)c(OCC2CCN(Cc3cc(C(F)(F)F)ccc3F)CC2)cc1F [Example 103, (2S,4R)-1-(5-cyclopropyl-2-fluoro-4-((1-(2-fluoro-5-(trifluoromethyl)benzyl)-piperidin-4-yl)methoxy)benzoyl)-4-fluoropyrrolidine-2-carboxylic acid] | – | ≤ 4.52 | –
15 | 6.05 | 7.29 | CC(C)Oc1ncc(CN2CCC(F)(COc3cc(F)c(C(=O)N4C[C@H](F)C[C@H]4C(=O)O)cc3C3CC3)CC2)cc1Cl [Example 109, (2S,4R)-1-(4-((1-((5-chloro-6-isopropoxypyridin-3-yl)methyl)-4-fluoropiperidin-4-yl)methoxy)-5-cyclopropyl-2-fluorobenzoyl)-4-fluoropyrrolidine-2-carboxylic acid] | – | ≤ 4.52 | –
16 | 4.96 | 5.13 | O=C(NC1(C(=O)O)COC1)c1cc(C2CC2)c(OCC23CC4CC(CC(C4)C2)C3)cc1F [Example 77, 3-(4-(adamantan-1-ylmethoxy)-5-cyclopropyl-2-fluorobenzamido)oxetane-3-carboxylic acid] | 4.92 | – | –
17 | 5.35 | 5.96 | O=C(O)[C@@H]1CCC(=O)N1C(=O)c1cc(C2CC2)c(OCC23CC4CC(CC(C4)C2)C3)cc1F [Example 198, (S)-1-(4-(adamantan-1-ylmethoxy)-5-cyclopropyl-2-fluorobenzoyl)-5-oxopyrrolidine-2-carboxylic acid] | 4.74 | – | –
18 | 5.00 | ≤ 5.00 | O=C(O)[C@@H]1C=C(C(F)(F)F)CN1C(=O)c1cc(C2CC2)c(OCC23CC4CC(CC(C4)C2)C3)cc1F [Example 203] | 4.72 | – | –
19 | 6.42 | 7.80 | O=C(O)[C@@H]1C[C@@H](F)CN1C(=O)c1cc(C2CC2)c(OCC2CCN([C@@H](c3ccccc3)c3cc(Cl)cc(Cl)c3)CC2)cc1F (single isomer, unassigned) [Example 125] | 5.21 | – | –
20 | 5.27 | 5.96 | O=C(O)C[C@@H]1CCN1C(=O)c1cc(C2CC2)c(OCC23CC4CC(CC(C4)C2)C3)cc1F [Example 215, 2-((S)-1-(4-((adamantan-1-yl)methoxy)-5-cyclopropyl-2-fluorobenzoyl)azetidin-2-yl)acetic acid] | – | ≤ 4.52 | –
21 | 5.59 | 6.59 | O=C(O)C[C@@H]1CCCN1C(=O)c1cc(C2CC2)c(OCC23CC4CC(CC(C4)C2)C3)cc1F [Example 206, 2-((S)-1-(4-(adamantan-1-ylmethoxy)-5-cyclopropyl-2-fluorobenzoyl)pyrrolidin-2-yl)acetic acid] | 4.80 | – | –
22 | 5.72 | 5.80 | O=C(O)[C@@H]1CCN1C(=O)c1cc(C2CC2)c(OCC23CC4CC(CC(C4)C2)C3)cc1F [Example 86, (S)-1-(4-(adamantan-1-ylmethoxy)-5-cyclopropyl-2-fluorobenzoyl)azetidine-2-carboxylic acid] | 4.59 | – | –

Row | Compound | pIC50 (human NaV1.7) | pIC50 (hNav1.7) | pIC50 (NaV1.5; [1]) | pIC50 (NaV1.5; [2]) | pIC50 (NaV1.5)
23 | O=C(O)[C@@H]1CC2(CC2)CN1C(=O)c1cc(C2CC2)c(OCC2(F)CCN(Cc3ccc(C(F)(F)F)cc3Cl)CC2)cc1F [Example 124, (S)-5-(4-((1-(2-chloro-4-(trifluoromethyl)benzyl)-4-fluoropiperidin-4-yl)methoxy)-5-cyclopropyl-2-fluorobenzoyl)-5-azaspiro[2.4]heptane-6-carboxylic acid] | 5.82 | 6.40 | – | – | 4.92
24 | O=C(O)[C@@H]1C[C@@H](F)CN1C(=O)c1cc(C2CC2)c(OCC2CCN(Cc3c(Cl)cccc3Cl)CC2)cc1F [Example 222, (2S,4R)-1-(5-cyclopropyl-4-((1-(2,6-dichlorobenzyl)piperidin-4-yl)methoxy)-2-fluorobenzoyl)-4-fluoropyrrolidine-2-carboxylic acid] | 6.68 | 7.89 | – | ≤ 4.52 | –
